Results: PubChem BioAssay AID330 (DTP/NCI, 2004)
Values joined by “and” are separate entries in the source; they are usually repeats but may differ in a detail not shown here. Equal values may be shown once. Toxic doses and inconclusive results are not listed. Rule for the calls: active = survival T/C of 150% or more; inactive = T/C below 125% in these data.

System: P388 leukemia ip, CD2F1 mice, survival T/C
Assay: NCI In Vivo Anticancer Drug Screen. Data for tumor model P388 Leukemia (intraperitoneal) in CD2F1 (CDF1) mice
Conditions: endpoint: median survival time, higher = longer survival
Procedure, shortened: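 Mice carrying the transplanted tumor received test compound or vehicle. Survival was recorded in each group, and the value is the treated-group measurement divided by that of the vehicle-treated control group.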

[1] = dose: 12.5 mg/kg/injection, schedule: Q01DX005 (ip), vehicle: saline with Tween-80
[2] = dose: 25.0 mg/kg/injection, schedule: Q01DX005 (ip), vehicle: saline with Tween-80
[3] = dose: 50.0 mg/kg/injection, schedule: Q01DX005 (ip), vehicle: saline with Tween-80
[4] = dose: 100.0 mg/kg/injection, schedule: Q01DX009 (ip), vehicle: saline with Tween-80
[5] = dose: 200.0 mg/kg/injection, schedule: Q01DX009 (ip), vehicle: saline with Tween-80
[6] = dose: 60.0 mg/kg/injection, schedule: Q01DX005 (ip), vehicle: saline with Tween-80
[7] = dose: 120.0 mg/kg/injection, schedule: Q01DX005 (ip), vehicle: saline with Tween-80
[8] = dose: 240.0 mg/kg/injection, schedule: Q01DX005 (ip), vehicle: saline with Tween-80
[9] = dose: 100.0 mg/kg/injection, schedule: Q01DX009 (ip), vehicle: saline
[10] = dose: 200.0 mg/kg/injection, schedule: Q01DX009 (ip), vehicle: saline
[11] = dose: 50.0 mg/kg/injection, schedule: Q01DX009 (ip), vehicle: Klucel (hydroxypropylcellulose) (HPC)
[12] = dose: 100.0 mg/kg/injection, schedule: Q01DX009 (ip), vehicle: Klucel (hydroxypropylcellulose) (HPC)
[13] = dose: 200.0 mg/kg/injection, schedule: Q01DX009 (ip), vehicle: Klucel (hydroxypropylcellulose) (HPC)
[14] = dose: 12.5 mg/kg/injection, schedule: Q01DX009 (ip), vehicle: saline with Tween-80
[15] = dose: 25.0 mg/kg/injection, schedule: Q01DX009 (ip), vehicle: saline with Tween-80
[16] = dose: 50.0 mg/kg/injection, schedule: Q01DX009 (ip), vehicle: saline with Tween-80
[17] = dose: 6.25 mg/kg/injection, schedule: Q01DX009 (ip), vehicle: saline with Tween-80
[18] = dose: 6.25 mg/kg/injection, schedule: Q01DX009 (ip), vehicle: saline
[19] = dose: 12.5 mg/kg/injection, schedule: Q01DX005 (ip), vehicle: Klucel (hydroxypropylcellulose) (HPC)
[20] = dose: 100.0 mg/kg/injection, schedule: Q01DX005 (ip), vehicle: saline with Tween-80
[21] = dose: 200.0 mg/kg/injection, schedule: Q01DX005 (ip), vehicle: saline with Tween-80

Measured: T/C

CCC(O)c1ccco1 (stereo unspecified)
inactive: [1] 109 % of control | [2] 100 % of control | [3] 111 % of control and 112 % of control

O=C(Nc1ccc(Br)cc1)c1ccccc1
inactive: [4] 95 % of control | [5] 90 % of control | dose: 400.0 mg/kg/injection, schedule: Q01DX009 (ip), vehicle: saline with Tween-80 100 % of control

CC(O)C(C)(C)S(=O)(=O)CCCc1ccccc1 (stereo unspecified)
inactive: [6] 107 % of control | [7] 107 % of control | [8] 108 % of control

C=C1C(=O)OC2C(OC(C)=O)C(C(=O)OC)CC(O)C/C(CO)=C\C(OC(=O)/C(C)=C/C)C12 (stereo unspecified)
inactive: dose: 2.0 mg/kg/injection, schedule: Q01DX009 (ip), vehicle: Klucel (hydroxypropylcellulose) (HPC) 115 % of control | dose: 4.0 mg/kg/injection, schedule: Q01DX009 (ip), vehicle: Klucel (hydroxypropylcellulose) (HPC) 108 % of control | dose: 8.0 mg/kg/injection, schedule: Q01DX009 (ip), vehicle: Klucel (hydroxypropylcellulose) (HPC) 110 % of control | dose: 16.0 mg/kg/injection, schedule: Q01DX009 (ip), vehicle: Klucel (hydroxypropylcellulose) (HPC) 100 % of control

CCCC(OC)=C(C(=O)OCC)C(=O)OCC
inactive: dose: 50.0 mg/kg/injection, schedule: Q01DX009 (ip), vehicle: saline 93 % of control | [9] 94 % of control | [10] 89 % of control

COc1cccc2c1C(=O)c1c(O)c3c(c(O)c1C2=O)CC(O)(C(C)=O)CC3OC1CC(N)C(C(C)O)O1 (stereo unspecified)
inactive: dose: 2.25 mg/kg/injection, schedule: Q04DX003 (ip), vehicle: distilled water + Tween-80 100 % of control | dose: 4.5 mg/kg/injection, schedule: Q04DX003 (ip), vehicle: distilled water + Tween-80 99 % of control | dose: 9.0 mg/kg/injection, schedule: Q04DX003 (ip), vehicle: distilled water + Tween-80 110 % of control | dose: 18.0 mg/kg/injection, schedule: Q04DX003 (ip), vehicle: distilled water + Tween-80 101 % of control | dose: 36.0 mg/kg/injection, schedule: Q04DX003 (ip), vehicle: distilled water + Tween-80 110 % of control

NC1=C(c2cccc(Cl)c2)C(=O)CC12C=CC(=O)C=C2
inactive: [11] 100 % of control | [12] 104 % of control | [13] 102 % of control

C=CCN=C([S-])Nc1cccc(C(=O)O)c1.[Au+].[Na+]
inactive: dose: 60.0 mg/kg/injection, schedule: Q01DX005 (ip), vehicle: saline 106 % of control | dose: 120.0 mg/kg/injection, schedule: Q01DX005 (ip), vehicle: saline 106 % of control | dose: 240.0 mg/kg/injection, schedule: Q01DX005 (ip), vehicle: saline 108 % of control

CN(C)N=Nc1ccc(-c2ccccc2)cc1
inactive: [14] 100 % of control and 104 % of control | [15] 102 % of control and 115 % of control | [16] 101 % of control and 110 % of control | [4] 102 % of control and 117 % of control

CCNCc1c(C)[nH]c2ccccc2c1=O
inactive: dose: 3.12 mg/kg/injection, schedule: Q01DX009 (ip), vehicle: saline with Tween-80 100 % of control | [17] 101 % of control | [14] 102 % of control | [15] 105 % of control | [4] 91 % of control

CC(=O)Nc1ccc(S(=O)(=O)N/N=c2/sc3ccccc3n2C)cc1N
inactive: [18] 96 % of control | dose: 12.5 mg/kg/injection, schedule: Q01DX009 (ip), vehicle: saline 103 % of control | dose: 25.0 mg/kg/injection, schedule: Q01DX009 (ip), vehicle: saline 100 % of control | [9] 88 % of control | [10] 92 % of control

CCOc1ccc2ccc3cccnc3c2n1
inactive: [6] 96 % of control | [7] 94 % of control | [8] 99 % of control

ClC1=C(Cl)C2(Cl)C3C4CC(C5OC45)C3C1(Cl)C2(Cl)Cl (stereo unspecified)
inactive: dose: 3.13 mg/kg/injection, schedule: Q01DX009 (ip), vehicle: saline with Tween-80 104 % of control and 97 % of control | [17] 90 % of control and 97 % of control | [14] 86 % of control

COc1ccc2c(c1)CCc1c(-c3noc4c3CCc3cc(OC)ccc3-4)noc1-2
inactive: dose: 60.0 mg/kg/injection, schedule: Q01DX005 (ip), vehicle: Klucel + Tween-80 92 % of control | dose: 120.0 mg/kg/injection, schedule: Q01DX005 (ip), vehicle: Klucel + Tween-80 96 % of control | dose: 240.0 mg/kg/injection, schedule: Q01DX005 (ip), vehicle: Klucel + Tween-80 100 % of control

COc1ccc(-c2nn3c(=O)c(Cc4ccccc4)c(O)nc3nc2-c2ccccc2)cc1
inactive: dose: 6.25 mg/kg/injection, schedule: Q01DX005 (ip), vehicle: Klucel (hydroxypropylcellulose) (HPC) 103 % of control | [19] 93 % of control

CCCCCCOc1cccc(OCCCC[N+]2(CC)CCCCC2)c1
inactive: dose: 1.56 mg/kg/injection, schedule: Q01DX009 (ip), vehicle: saline 96 % of control | dose: 3.12 mg/kg/injection, schedule: Q01DX009 (ip), vehicle: saline 105 % of control | [18] 91 % of control

COc1c(C=O)c2c(c(C=O)c1OC)OCO2
inactive: [3] 100 % of control | [20] 104 % of control | [21] 99 % of control

O=c1c2ccccc2oc2cc3c(c(O)c12)CCCC3
inactive: [1] 91 % of control | [2] 97 % of control

CCCCCCCCNC(=O)OCc1c2ccccc2cc2ccccc12
inactive: [11] 98 % of control | [12] 101 % of control | [13] 98 % of control

Cc1c2ccccc2c(C)c2c1cc[n+]1ccccc21
inactive: dose: 6.25 mg/kg/injection, schedule: Q04DX003 (ip), vehicle: other 105 % of control | dose: 12.5 mg/kg/injection, schedule: Q04DX003 (ip), vehicle: other 103 % of control | dose: 25.0 mg/kg/injection, schedule: Q04DX003 (ip), vehicle: other 99 % of control

O=NN(C(=O)NC1CCC(C(=O)O)CC1)C1CCC(C(=O)O)CC1 (stereo unspecified)
inactive: dose: 25.0 mg/kg/injection, schedule: Q01DX001 (ip), vehicle: distilled water + Tween-80 93 % of control | dose: 50.0 mg/kg/injection, schedule: Q01DX001 (ip), vehicle: distilled water + Tween-80 93 % of control | dose: 100.0 mg/kg/injection, schedule: Q01DX001 (ip), vehicle: distilled water + Tween-80 93 % of control | dose: 200.0 mg/kg/injection, schedule: Q01DX001 (ip), vehicle: distilled water + Tween-80 101 % of control

CCOC(=O)C1=NNC(C#N)C1 (stereo unspecified)
inactive: [3] 101 % of control | [20] 97 % of control | [21] 99 % of control

CN(C)Cc1ncccc1O
inactive: [9] 102 % of control and 95 % of control | [10] 100 % of control and 112 % of control | dose: 400.0 mg/kg/injection, schedule: Q01DX009 (ip), vehicle: saline 113 % of control

C[CH2][Ge]([CH2]C)[O]C(=O)C(=O)[O][Ge]([CH2]C)[CH2]C
inactive: [19] 100 % of control | dose: 25.0 mg/kg/injection, schedule: Q01DX005 (ip), vehicle: Klucel (hydroxypropylcellulose) (HPC) 103 % of control | dose: 50.0 mg/kg/injection, schedule: Q01DX005 (ip), vehicle: Klucel (hydroxypropylcellulose) (HPC) 118 % of control

Cc1c(C)c2c(c(C)c1OP(=O)(N1CC1)N1CC1)CCC(C)(CCCC(C)CCCC(C)CCCC(C)C)O2 (stereo unspecified)
inactive: [16] 105 % of control | [4] 105 % of control | [5] 102 % of control

CC1=C/C(=N\N2CCOCC2)C(C(O)(C(F)(F)F)C(F)(F)F)C(C)(C)C1 (stereo unspecified)
inactive: [11] 96 % of control | [12] 102 % of control | [13] 105 % of control

CC(=O)OC1SCC2OC(=O)OC21 (stereo unspecified)
inactive: [16] 108 % of control | [4] 95 % of control | [5] 96 % of control

O=[N+]([O-])c1cccc2c[n+](Cc3ccccc3)ccc12
inactive: [14] 113 % of control | [15] 118 % of control | [16] 107 % of control
